Data: publication PMC5618429, “Kempopeptin C, a Novel Marine-Derived Serine Protease Inhibitor Targeting Invasive Breast Cancer” (Marine Drugs, 2017)

What was measured:
[1] = target: T1, recombinant human matriptase (Homo sapiens, UniProt Q9Y5Y6); test: Matriptase inhibition assay; type: biochemical; details: mean ± SD, n = 3; 15-min preincubation; read-out: IC50 against matriptase
T1 construct: purchased R&D Systems 3946-SE-010
T1 sequence (Q9Y5Y6 615-855 limits assumed): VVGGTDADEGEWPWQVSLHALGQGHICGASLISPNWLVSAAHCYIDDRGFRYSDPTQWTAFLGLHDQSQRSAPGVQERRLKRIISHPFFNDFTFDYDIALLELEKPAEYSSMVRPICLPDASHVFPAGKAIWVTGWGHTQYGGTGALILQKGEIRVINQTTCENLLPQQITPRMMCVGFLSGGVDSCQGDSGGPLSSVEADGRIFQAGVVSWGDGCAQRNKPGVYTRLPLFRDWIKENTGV
Method: In matriptase inhibition assay, 50 µL of recombinant human matriptase (R&D Systems, Minneapolis, MN, USA; 3946-SE-010) ([…] prepared in assay buffer: 50 mM Tris, 50 mM NaCl, 0.01% Tween 20; pH 9.0) and 1 µL of different concentrations of inhibitors (2 and 3; half log dilutions prepared in DMSO) or the solvent control were pre-incubated at room temperature for 15 min. Following the incubation period, 50 µL of the 50 µM substrate solution (Boc-Gln-Ala-Arg-AMC) (R&D Systems, Minneapolis, MN, USA; ES014) were added to each well, and the enzyme activity was monitored by measuring the increase in fluorescence signal from the fluorescently-labeled substrate every 30 s for 30 min (Ex 380 nm, Em 460 nm) using the SpectraMax M5 plate reader (Molecular Devices).

[2] = Cell viability assay (MTT); type: cell-based; details: human, MDA-MB-231 breast cancer cells; MDA-MB-231, 48 h, all concentrations tested (32 µM to 320 pM)
Method: MDA-MB-231 cells were seeded in 96-well plates (10,000 cells/well). After 24 h of incubation, the cells were treated with different concentrations of kempopeptins B or C (2 or 3) or the solvent control (DMSO). Following 48 h of incubation, cell viability was measured using 3-(4,5-dimethylthiazol-2-yl)-2,5-diphenyltetrazolium bromide according to the manufacturer's instructions (Promega, Madison, WI, USA).
Effect of kempopeptins on the viability of MDA-MB-231 cells
Kempopeptin C Kempopeptin B
Figure S1. Effect of kempopeptins B and C (2) and (3) on the viability of MDA -MB-231 breast cancer cells.

[3] = system: CDCP1 cleavage in MDA-MB-231 cells; test: Cleavage of CDCP1 in MDA-MB-231 cells (Western blot); type: cell-based
Method: The experiment was performed by treating MDA-MB-231 cells with different concentrations of either kempopeptin B (2) or C (3) for 72 h (Figure 6A). Dexamethasone (Dex) 100 nM was used as a positive control.
Figure 6 The effect of kempopeptins B and C (2 and 3) on CDCP1 cleavage in MDA-MB-231. (A) MDA-MB-231 cells were treated for 72 h with different concentrations of the test compounds. Following 72 h, the lysates were collected and analyzed by Western blot. (B) MDA-MB-231 cells were treated at different time points with 100 µM of kempopeptin C (3). Following 6 h, 12 h and 24 h, the lysates were collected and analyzed by Western blot. Dexamethasone (Dex) was used as a positive control. (C) MDA-MB-231 cells treated for 24 h with different concentrations of 3 in the presence of 10 nM recombinant human matriptase. Cell lysates were harvested and analyzed by Western blot. (D) Densitometric analysis of the full-length, LMW of CDCP1 and actin bands in (C).
MDA-MB-231 cells (150,000 cells/well) were seeded in 12-well plates. After 24 h, the media were replaced, and cells were treated with different concentrations of inhibitors (2 or 3; prepared in DMSO), the solvent control or the positive control dexamethasone. Whole-cell protein lysates were collected after 6, 12, 24 and 72 h using PhosphoSafe lysis buffer (Novagen, Madison, USA) and the protein concentration measured using the BCA Protein Assay kit (Pierce; 23227; Thermofisher Scientific; Waltham, MA, USA). Twenty micrograms of protein were separated by SDS-PAGE, transferred to polyvinylidene difluoride (PVDF) membranes, probed with CDCP1 antibody (Cell Signaling; 4115S) and detected with SuperSignal West Femto Maximum Sensitivity Substrate (Pierce).

[4] = system: MDA-MB-231 cells; test: Transwell migration assay; type: cell-based; details: Homo sapiens, MDA-MB-231, 48 h
Method: The significance of our compounds in inhibiting matriptase and targeting its downstream cellular substrates was evaluated by examining the effect of kempopeptin C (3) on the migration of highly invasive breast cancer cells. The effect on migration was investigated by treating MDA-MB-231 cells with different concentrations of the test compound or solvent control for 48 h. Following 48 h, migrated cells were stained with crystal violet, and the number was counted under the microscope. […] To rule out that proteasome inhibition might be responsible for the migration inhibitory activity, the effect of kempopeptin C (3) on the trypsin-like activity of proteasomes was tested in vitro.
Figure 7 The effect of kempopeptin C (3) on the migration of MDA-MB-231. MDA-MB-231 were incubated for 48 h in the presence of different concentrations (0, 10 or 20 µM) of 3 and the effect was compared to the solvent control. The graph represents the number of migrated cells in each treatment group. The asterisks denote the significance of p ≤ 0.01 relative to the solvent control using the two-tailed unpaired t-test. Data are presented as the mean ± SD, n = 3.
The migration assays were performed using BD falcon cell culture inserts (353097; PET membrane, 8-µm pore size; Fisher Scientific; Waltham, MA, USA) in 24-well plates. […]

In the case of `CCCC(=O)NC(C(=O)NC1C(=O)NC(CCCCN)C(=O)NC2CCC(O)N(C2=O)C(C(C)CC)C(=O)N(C)C(Cc2ccc(OC)c(Cl)c2)C(=O)NC(C(C)C)C(=O)OC1C)C(C)C` (stereo not drawn) [Kempopeptin C, kempopeptin C], the IC50 [1] is reported as 280 ± 30 nM, the viability at 48 h [2] is reported as over 90% and the “Inhibition of CDCP1 cleavage in MDA-MB-231” value ([3]; 100 µM, 6, 12 and 24 h) is reported as “no inhibition of CDCP1 cleavage was detected”. The “Inhibition of CDCP1 cleavage in MDA-MB-231” value ([3]; 72 h, different concentrations) was “No inhibition of CDCP1 cleavage was observed”, the inhibition at 10 µM ([4]; MDA-MB-231, 10 µM) was 37% and the inhibition at 20 µM ([4]; MDA-MB-231, 20 µM) was 60%.
